Test results published in paper PMC1664607 (PLoS Medicine, 2006).
In brackets after ≈: the same amount, converted by molar mass.

How the values were obtained:
[1] = system: M. tuberculosis ATCC 25618 (H37Rv); experiment: Susceptibility testing (agar dilution MIC); assay type: cell-based; settings: Mycobacterium tuberculosis, 336 h; 7H11 agar, 37 °C, 14 d; read-out: MIC
[2] = system: M. tuberculosis ATCC 35837 (H37Rv-E-R); experiment: microbe, parasite or virus in culture; assay type: cell-based; settings: Mycobacterium tuberculosis, 336 h
[3] = target: T1, CYP2C19 (Homo sapiens, UniProt P33261); experiment: S-mephenytoin 4′ -hydroxylation in human liver microsomes; assay type: in vitro ADME; settings: 100 μM S-mephenytoin
T1 construct: Standard incubation mixtures of 0.5 ml contained microsomal protein (0.1–0.5 mg); from tissue; host or cells: pooled human liver microsomes (ten donors)

[4] = system: intracellular M. tuberculosis H37Rv in THP-1 cells; experiment: Activity against intracellular mycobacteria, 4-h pulsed exposure; assay type: cell-based, M. tuberculosis; human THP-1 cells; settings: further 68-h culture
[5] = assay type: in vitro ADME, human, rat, mouse, dog, rabbit, and monkey; settings: 2 h
Description: The study was undertaken to investigate the metabolites produced by the metabolic reactions of OPC-67683 using human, rat, mouse, dog, rabbit, and monkey liver microsomes. Pooled human liver microsomes (20 mg/ml) from ten donors were prepared at the Biomedical Research Institute, Human and Animal Bridge Discussion Group (Chiba, Japan). Human liver samples were legally procured from the National Disease Research Interchange (http://www.ndriresource.org/) through the international partnership with the Human and Animal Bridge Discussion Group. The study was conducted in accordance with the Declaration of Helsinki.
The reactions were performed in duplicate in a shaking water bath at 37 °C for 2 h. The incubation mixtures were extracted with acetonitrile and ethyl acetate, and the samples were analyzed by HPLC and LC-ESI-MS/MS.

[6] = target: T2, CYP2A6 (Homo sapiens, UniProt P11509); experiment: Coumarin 7-hydroxylation in human liver microsomes; assay type: in vitro ADME; settings: 2 μM coumarin
T2 construct: Standard incubation mixtures of 0.5 ml contained microsomal protein (0.1–0.5 mg); from tissue; host or cells: pooled human liver microsomes (ten donors)
T2 sequence (P11509 1-494): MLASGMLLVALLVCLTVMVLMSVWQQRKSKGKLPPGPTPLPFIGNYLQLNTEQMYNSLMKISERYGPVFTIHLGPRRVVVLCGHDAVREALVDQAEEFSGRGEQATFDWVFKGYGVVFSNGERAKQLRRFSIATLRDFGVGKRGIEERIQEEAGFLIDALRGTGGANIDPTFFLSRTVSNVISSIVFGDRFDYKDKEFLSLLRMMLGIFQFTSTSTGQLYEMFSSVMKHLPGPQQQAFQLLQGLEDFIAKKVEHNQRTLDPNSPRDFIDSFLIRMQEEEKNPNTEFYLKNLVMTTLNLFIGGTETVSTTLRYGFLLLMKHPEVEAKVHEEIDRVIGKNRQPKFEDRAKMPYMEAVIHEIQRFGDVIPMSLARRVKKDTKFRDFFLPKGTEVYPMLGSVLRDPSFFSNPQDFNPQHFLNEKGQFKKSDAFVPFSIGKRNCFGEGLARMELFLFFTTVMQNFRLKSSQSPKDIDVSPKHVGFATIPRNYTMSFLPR

[7] = Plasma levels in an experimental mouse model of TB; settings: in vivo, po
[8] = system: M. tuberculosis Kurono; experiment: Therapeutic efficacy in an experimental mouse model of chronic TB; assay type: in vivo, ICR mice; settings: for Log of Viable Counts/Lung: mean ± S.D., n = 5

T1 sequence (P33261 whole entry): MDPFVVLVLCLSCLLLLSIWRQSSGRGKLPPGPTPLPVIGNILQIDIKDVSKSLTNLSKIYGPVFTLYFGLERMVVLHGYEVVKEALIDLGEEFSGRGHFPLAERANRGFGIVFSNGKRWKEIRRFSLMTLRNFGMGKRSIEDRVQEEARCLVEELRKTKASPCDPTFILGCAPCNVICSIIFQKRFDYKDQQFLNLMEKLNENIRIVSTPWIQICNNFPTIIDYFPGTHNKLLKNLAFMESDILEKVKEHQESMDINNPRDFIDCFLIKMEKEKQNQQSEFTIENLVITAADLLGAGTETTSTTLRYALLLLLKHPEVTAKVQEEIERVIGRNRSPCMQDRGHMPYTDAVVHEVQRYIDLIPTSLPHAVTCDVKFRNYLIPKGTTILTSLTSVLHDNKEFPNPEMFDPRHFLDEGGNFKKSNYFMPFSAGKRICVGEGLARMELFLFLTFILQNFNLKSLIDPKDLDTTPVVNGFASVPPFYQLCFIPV

SMILES: C[C@]1(COc2ccc(N3CCC(Oc4ccc(OC(F)(F)F)cc4)CC3)cc2)Cn2cc([N+](=O)[O-])nc2O1 [OPC-67683, (R)-2-methyl-6-nitro-2-(4-[4-(4-trifluoromethoxyphenoxy)piperidin-1-yl]phenoxymethyl}-2,3-dihydroimidazo[2,1-b]oxazole]
- MIC [1]: 0.012 µg/mL (≈ 0.0225 µM)
- MIC [2]: 0.012 µg/mL (≈ 0.0225 µM)
- Percent of Control ([3]; 10 μM): 113.3% of Control
- Percent of Control ([3]; 100 μM): 107.6% of Control
- Activity against intracellular M. tuberculosis H37Rv [4]: highly active
- Stability in the in vitro metabolism of liver microsomes [5]: stable
- Percent of Control ([6]; 10 μM): 103.1% of Control
- Percent of Control ([6]; 30 μM): 97.8% of Control
- concentration at 1 h [7]: 133 ± 30 ng/mL
- concentration at 2 h [7]: 193 ± 40 ng/mL
- concentration at 4 h [7]: 220 ± 20 ng/mL
- concentration at 6 h [7]: 297 ± 83 ng/mL
- AUC(0-t) ([7]; 2.5 mg/kg): 4130 ng·h/mL
- Cmax ([7]; 2.5 mg/kg): 297 ng/mL
- Tmax ([7]; 2.5 mg/kg): 6 h
- concentration at 12 h ([7]; 2.5 mg/kg): 166 ± 49 ng/mL
- concentration at 24 h ([7]; 2.5 mg/kg): 49 ± 12 ng/mL
- half-life ([7]; 2.5 mg/kg): 7.6 h
- Log of Viable Counts/Lung ([8]; 0.156 mg/kg once daily for 28 d (4 weeks)): 6.506 ± 0.294^a:NS, b:NS
- Log of Viable Counts/Lung ([8]; 0.313 mg/kg once daily for 28 d (4 weeks)): 5.959 ± 0.436^a:**, b:**
- Log of Viable Counts/Lung ([8]; 0.625 mg/kg once daily for 28 d (4 weeks)): 5.457 ± 0.245^a:**, b:**
- Log of Viable Counts/Lung ([8]; 1.25 mg/kg once daily for 28 d (4 weeks)): 4.867 ± 0.400^a:**, b:**
- Log of Viable Counts/Lung ([8]; 2.5 mg/kg once daily for 28 d (4 weeks)): 4.753 ± 0.297^a:**, b:**
- Log of Viable Counts/Lung ([8]; 5 mg/kg once daily for 28 d (4 weeks)): 4.272 ± 0.463^a:**, b:**
- Log of Viable Counts/Lung ([8]; 10 mg/kg once daily for 28 d (4 weeks)): 3.943 ± 0.465^a:**, b:**
- Log of Viable Counts/Lung ([8]; 20 mg/kg once daily for 28 d (4 weeks)): 3.495 ± 0.522^a:**, b:**
- Log of Viable Counts/Lung ([8]; 40 mg/kg once daily for 28 d (4 weeks)): 2.791 ± 0.671^a:**, b:**
- Dose that could produce a CFU reduction of at least 95% ([8]; lung, once daily for 28 d): 0.625 mg/kg
